Where two headings read alike, the source gives them in different places.
What was measured:
[1] = tested on: human cadaver corneas and rabbit corneas
Experimental: Cornea radial strain measurements were performed on human cadaver corneas and on rabbit corneas. Human cadaver corneas (n=2 pairs) were cultured as previously mentioned in Example 1. The treated group was immersed in 0.0016 mg/ml CuSO4 for 2 weeks. The samples also contained a small portion of sclera at both ends. Mineral oil was applied on the surface of the sclera-cornea-sclera strip to minimize tissue dehydration. Rabbit corneas were divided into 4 groups. Two groups were treatment groups receiving either CuSO4 0.0025 mg/ml three times per day or CuSO4 0.0025 mg/ml once per day. Two groups served as control receiving only BSS.
The sample was coupled between a motor and a transducer that applied a controlled pressure from 5-30 mmHg and measured the resultant radial strain. The sample length between the two gripping jaws was approximately 10 mm. Sample geometric information, including width and thickness, was input into the Rheometrics System Analyzer (RSA) control panel. Sample thickness was measured by an ultrasound pachymeter (DGH 550 Pa-chette2; DGH Technology, Exton, Pa.).

Human Keratoconus Cornea = conditions: corneas treated 1 week with 0.0016 mg/ml CuSO4 vs untreated, HPLC
Experimental: Each Human Keratoconus Cornea was bisected. One half was treated with 0.0016 mg/ml CuSo4 in Optisol solution for 1 week and other half was left untreated. After one week each cornea was kept in negative 80° C. for future analysis.
The cornea samples were washed with PBS pH 7.4 and powdered in liquid nitrogen and pulverized with a Freezer Mill. Cornea samples were demineralized with 0.5 M EDTA in 0.05 M Tris buffer, pH 7.4, for 48 h at 4° C. The insoluble fraction was washed twice with distilled water by centrifugation at 5000 g at […] for 20 min and lyophilized. The lyophilized sample was hydrolyzed with constantly boiling redistilled 6 N HCl in vacuo for 24 h at 110° C. The hydrolysate was neutralized with 2.5 N NaOH and dissolved in distilled water. Analyses were performed for Lysinonorleucine (LNL) and Histidinohydroxylysinonorleucine (HHL) separately by HPLC.
Amino acid analysis is an important application area in protein chemistry and food analysis. Many different applications exist in this field. Automated pre-column derivatization followed by reverse phase LC has become a useful procedure for efficient analysis, since it is an easy and simple to use technique. An Agilent 1290 Infinity LC System was used with automated pre-column derivatization for fast and sensitive analysis of Lysinonorleucine (LNL). The column used for this method is Agilent ZORBAX Eclipse Plus RRHD C18 (3.0 mm×50 mm, 1.8 μm) and Mobile phase consisted of Solvent A: 10 mM disodium phosphate+10 mM sodium tetraborate pH 8.2 and Solvent B: ACN/MeOH/H2O (45:45:10)
To […] of the protein hydrolysate sample (less than 3 mM as the total amino acid concentration), 50 μl of 1.5 mM Ne-methyl-L-lysine hydrochlo ide (Mly) in 0.26 M borate buffer, pH 9.5, and 50 μl of acetone were added in a 1.5-ml reaction vial. Then 25 μl of FMOC-Cl reagent (6 mM FMOC-Cl in acetone) was added and the mixture was allowed to react for 2 min at room temperature. The reaction mixture was extracted twice with […] of pentane to remove excess FMOC-Cl reagent. The aqueous phase was subjected to chromatography.
Cornea cross-linking is tissue specific. The predominant cross-links generated in the human cornea are lysinonorleucine (LNL). LNL are the building blocks for subsequent multivalent cross-links such as the histidinyl-hydroxylysinonorleucine (HHL). Normal and keratoconic human corneas were treated for 1 week with 0.0016 mg/ml CuSO4. Then, an HPLC analysis was performed to measure levels of LNL (FIGS. 2A-2C) and HHL (FIGS. 3A-3C).

rabbits = conditions: 0.0025 mg/ml TID or QD
Experimental: Copper sulfate (CuSO4) solution was prepared at a concentration of 0.0025 mg/ml and administered three times a day (TID) or once a day (QD) to rabbits. An anterior segment evaluation was performed with slit-lamp biomicroscopy and Heidelberg Spectralis anterior segment optical coherence tomography (AS-OCT). Two rabbits (n=4 eyes) were sacrificed at each of day 1, week 1, week 4, and week 6 for copper levels in eye tissues and compared to control (no drops) rabbits. Aqueous humor, vitreous, retina, cornea, lens, and blood samples were analyzed for copper ions using inductively coupled plasma mass spectrometry (ICP-MS).
Rabbits (n=2) were sacrificed after 42 days by intravenous injection of 0.3 ml/kg euthanasia solution and the eyes were enucleated for histological evaluations and reading for signs of inflammation, tissue damage, scarring and fibrosis. The anterior section of the eyes were fixed in 10% formaldehyde-glutaraldehyde solution, dehydrated in a graded series of alcohol, embedded in paraffin, and sectioned with a microtome. The sections were stained with appropriate staining (hematoxylin and eosin and Masson Trichrome).

[2] = tested on: cornea of New Zealand white rabbits; conditions: 0.0025 mg/ml once or three times per day, 0.025 mg/ml once per day; weekly for 5 weeks; mean K and at 3 mm
Experimental: Copper sulfate (CuSO4) at 0.0025 mg/ml was administered to New Zealand white rabbits at a dose of once per day and three times per day. Additionally, a high concentration sample of 0.025 mg/ml was administered to New Zealand with rabbits once per day during the treatment period. Three different controls were administered either no drops, BSS, or artificial tears. Each of the 6 groups included 6 test subjects each. Topography images were taken before treatment and weekly for 5 weeks. Diopter measurements were the mean K values and at 3 mm. These values were compared to diopter measurements in laser cross-linked corneas after 1 month and 1 year.

lysyl oxidase (LOX) = conditions: 0.0016 mg/mL CuSO4 in BSS vs BSS control
Experimental: As a parallel assay, we added 500 uM aminopropionitrile (BAPN) which can diminish LOX activity completely. The fluorescence of oxidized Amplex red was recorded every 10 minutes using fluorescence plate reader.

## O=S(=O)([O-])[O-].[Cu+2] [CuSO4, copper (II) sulfate]
[1]; after copper sulfate treatment vs untreated (FIG. 4)
  corneal stiffness: marked increase
[1]; at 20 mmHg
  average peak radial strain induced by ocular pulse, treated vs untreated corneas: about 1.5 times lower
[1]; compared with laser cross-linking (FIG. 5)
  corneal biomechanics: comparable to that seen with laser cross-linking
[1]; from radial strain at 20 mmHg, treated vs untreated
  increase in corneal strength: ~50%
Human Keratoconus Cornea
  HHL (histidinyl-hydroxylysinonorleucine) cross-link levels: HHL cross-links are also observed
  LNL (lysinonorleucine) cross-link levels: LNL cross-links were observed
Human Keratoconus Cornea; listed as copper
  HHL (histidinyl-hydroxylysinonorleucine) cross-link levels: significant increase
  LNL (lysinonorleucine) cross-link levels: significant increase
rabbits
  corneal haze: no observed corneal haze
  effect on electroretinography (ERG) measurements: no effect
rabbits; histology after 6 weeks
  toxicity in dissected eye tissues: no observed toxicity
[2]
  decrease in diopter measurements vs control groups: greater decrease
Lysyl oxidase (LOX); keratoconus corneal fibroblast cells
  lox enzyme activity: dramatically increased
Lysyl oxidase (LOX); normal corneal fibroblast cells
  lox enzyme activity: dramatically increased
